Assay results taken from US20240217957A1, “HETEROCYCLIC COMPOUND AND USE THEREOF” (TAKEDA PHARMACEUTICAL COMPANY LIMITED, priority 2022, published 2024).

biological target: T1, human OX2 receptor (Homo sapiens, UniProt O43614); experiment: Measurement of orexin type 2 receptor agonist activity (calcium fluorescence, Fluo-4 AM, FDSS); type: cell-based; conditions: compound at 3 μM; CHO cells forcibly expressing human OX2 receptor; DMSO = 0%, 10 nM orexin A (human) = 100%
T1 construct: expressed in transfected cells
T1 sequence (O43614 1-444): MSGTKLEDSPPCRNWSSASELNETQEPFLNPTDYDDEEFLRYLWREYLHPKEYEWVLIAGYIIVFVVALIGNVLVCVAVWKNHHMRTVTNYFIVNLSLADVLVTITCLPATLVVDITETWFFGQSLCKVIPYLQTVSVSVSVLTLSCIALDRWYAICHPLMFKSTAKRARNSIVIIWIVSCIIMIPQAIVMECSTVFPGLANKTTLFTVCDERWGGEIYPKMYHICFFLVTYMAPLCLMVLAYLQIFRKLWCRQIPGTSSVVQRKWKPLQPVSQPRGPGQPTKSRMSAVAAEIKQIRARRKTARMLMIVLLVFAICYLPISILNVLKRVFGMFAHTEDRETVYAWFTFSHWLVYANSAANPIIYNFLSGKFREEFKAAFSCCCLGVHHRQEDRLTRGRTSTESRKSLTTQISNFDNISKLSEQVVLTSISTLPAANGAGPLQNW
Experimental: In order to obtain cell clones that stably express human orexin type 2 receptor, human orexin type 2 (residues 1-444, NCBI Reference Sequence: AK314279) was constructed in a pcDNA3.1 (+) vector (Invitrogen) to express in mammalian cells. This plasmid DNA was transfected into CHO-K1 cells by electroporation, and stable clones were obtained by limiting dilution using resistance to G418 as a selection marker.
CHO cells in which human OX2 receptor was forcibly expressed were seeded at 10,000 cells/well into a 384-well black transparent bottom plate (BD falcon), and were incubated at 37° C., 5% CO2 for 1 day after incubation at room temperature for 30 minutes. After removing the cell plate medium, assay buffer containing calcium indicator A (HBSS (Thermo Fisher Scientific), 20 mM HEPES (Thermo Fisher Scientific), 0.1% BSA (Sigma-Aldrich), 2.5 μg/mL Fluo-4 AM (Dojin Kagaku), 0.08% Pluronic F127 (Dojin Kagaku), 1.25 mM probenecid (Dojin Kagaku)) was added at 30 μL/well. After incubation in a 5% CO2 incubator at 37° C. for 30 minutes, it was incubated at room temperature for another 30 minutes. Add 10 μL/well of the test compound diluted with assay buffer B (HBSS, 20 mM HEPES, 0.1% BSA), and use FDSS uCELL (Hamamatsu Photonics) to measure the fluorescence value every 1 second for 1 minute, and then every 2 seconds for […]. It was measured for 1 minute and 40 seconds. The amount of fluorescence value when DMSO is added instead of the test compound is defined as 0%, and the amount of fluorescence value when orexin A (human) (Peptide Institute) with a final concentration of 10 nM is added is defined as 100%. The activity (%) of the test compound was calculated.

Compared with `Cc1cnc([C@@H]2CC(N3C[C@@H](NS(C)(=O)=O)C(F)(F)C3)=NO2)c(-c2c(F)cc(Cl)cc2F)c1` [Example 53, N-[(3R)-1-{5-[3-(4-chloro-2,6-difluorophenyl)-5-methylpyridin-2-yl]-4,5-dihydro-1,2-oxazol-3-yl}-4,4-difluoropyrrolidin-3-yl]methanesulfonamide], `CS(=O)(=O)N[C@@H]1CN(C2=NOC(c3ncc(Cl)cc3-c3c(F)cccc3F)C2)CC1(F)F` (stereo partly drawn) [Example 49, N-[(3R)-1-{5-[5-chloro-3-(2,6-difluorophenyl)pyridin-2-yl]-4,5-dihydro-1,2-oxazol-3-yl}-4,4-difluoropyrrolidin-3-yl]methanesulfonamide] is lower in “OX2R agonist activity (3 μM, %)” value: 98% for the first, 95% for the second.

Compared with `O=S(=O)(CF)N[C@H]1CCN(C2=NOC(c3ncc(Cl)cc3-c3c(F)cccc3F)C2)C1` (stereo partly drawn) [Example 101, N-[(3S)-1-{5-[5-chloro-3-(2,6-difluorophenyl)pyridin-2-yl]-4,5-dihydro-1,2-oxazol-3-yl}pyrrolidin-3-yl]-1-fluoromethanesulfonamide], `Cc1cnc([C@@H]2CC(N3CC[C@H](NS(=O)(=O)C4(F)CC4)C3)=NO2)c(-c2c(F)cccc2F)c1` [Example 30, N-[(3S)-1-{(5S)-5-[3-(2,6-difluorophenyl)-5-methylpyridin-2-yl]-4,5-dihydro-1,2-oxazol-3-yl}pyrrolidin-3-yl]-1-fluorocyclopropane-1-sulfonamide] is higher in “OX2R agonist activity (3 μM, %)” value: 98% for the first, 104% for the second.

First: CS(=O)(=O)N[C@H]1CCCN(C2=NOC(c3ccccc3-c3c(F)cccc3F)C2)CC1 (stereo partly drawn) [Example 5, N-{(4S)-1-[5-(2′,6′-difluoro[1,1′-biphenyl]-2-yl)-4,5-dihydro-1,2-oxazol-3-yl]azepan-4-yl}methanesulfonamide]
Second: CS(=O)(=O)N[C@H]1CCCN(C2=NOC(c3ccccc3-c3c(F)cccc3F)C2)C1 (stereo partly drawn) [Example 6, N-{(3S)-1-[5-(2′,6′-difluoro[1,1′-biphenyl]-2-yl)-4,5-dihydro-1,2-oxazol-3-yl]piperidin-3-yl}methanesulfonamide]
The “OX2R agonist activity (3 μM, %)” value of the first is higher: 106% for the first, 98% for the second.

Compared with `Cc1cnc(C2(CF)CC(N3C[C@H](F)[C@H](NS(C)(=O)=O)C3)=NO2)c(-c2c(F)cc(F)cc2F)c1` (stereo partly drawn) [Example 110, N-[(3R,4S)-4-fluoro-1-{5-(fluoromethyl)-5-[5-methyl-3-(2,4,6-trifluorophenyl)pyridin-2-yl]-4,5-dihydro-1,2-oxazol-3-yl}pyrrolidin-3-yl]methanesulfonamide], `CS(=O)(=O)N[C@@H]1CN(C2=NOC(CF)(c3ncc(Cl)cc3-c3c(F)cccc3F)C2)C[C@@H]1F` (stereo partly drawn) [Example 129, N-[(3R,4S)-1-{5-[5-chloro-3-(2,6-difluorophenyl)pyridin-2-yl]-5-(fluoromethyl)-4,5-dihydro-1,2-oxazol-3-yl}-4-fluoropyrrolidin-3-yl]methanesulfonamide] is higher in “OX2R agonist activity (3 μM, %)” value: 100% for the first, 102% for the second.

Going from `Cc1ccc(C2CC(N3C[C@H](F)[C@H](NS(C)(=O)=O)C3)=NO2)c(-c2ncc(F)cc2F)c1` (stereo partly drawn) [Example 124, N-[(3R,4S)-1-{5-[2-(3,5-difluoropyridin-2-yl)-4-methylphenyl]-4,5-dihydro-1,2-oxazol-3-yl}-4-fluoropyrrolidin-3-yl]methanesulfonamide] to `CS(=O)(=O)N[C@@H]1CN(C2=NOC(c3ccc(F)cc3-c3c(F)cccc3F)C2)C[C@@H]1F` (stereo partly drawn) [Example 119, N-{(3R,4S)-4-fluoro-1-[5-(2′,5,6′-trifluoro[1,1′-biphenyl]-2-yl)-4,5-dihydro-1,2-oxazol-3-yl]pyrrolidin-3-yl}methanesulfonamide], the “OX2R agonist activity (3 μM, %)” value rises from 97% to 101%.

Compared with `CS(=O)(=O)N[C@@H]1CN(C2=NOC(CO)(c3ncc(Cl)cc3-c3c(F)cccc3F)C2)CC1(F)F` (stereo partly drawn) [Example 142, N-[(3R)-1-{5-[5-chloro-3-(2,6-difluorophenyl)pyridin-2-yl]-5-(hydroxymethyl)-4,5-dihydro-1,2-oxazol-3-yl}-4,4-difluoropyrrolidin-3-yl]methanesulfonamide], `Cc1cnc(C2(C(F)F)CC(N3C[C@@H](NS(C)(=O)=O)C(F)(F)C3)=NO2)c(-c2c(F)cccc2F)c1` (stereo partly drawn) [Example 59, N-[(3R)-1-{5-(difluoromethyl)-5-[3-(2,6-difluorophenyl)-5-methylpyridin-2-yl]-4,5-dihydro-1,2-oxazol-3-yl}-4,4-difluoropyrrolidin-3-yl]methanesulfonamide] is lower in “OX2R agonist activity (3 μM, %)” value: 102% for the first, 101% for the second.

Compared with `Cc1cnc([C@@H]2CC(N3C[C@@H](F)[C@H](NS(=O)(=O)N(C)C)C3)=NO2)c(-c2c(F)cc(F)cc2F)c1` [Example 77, N′-[(3R,4R)-4-fluoro-1-{(5S)-5-[5-methyl-3-(2,4,6-trifluorophenyl)pyridin-2-yl]-4,5-dihydro-1,2-oxazol-3-yl}pyrrolidin-3-yl]-N,N-dimethylsulfuric diamide], `Cc1cnc([C@@H]2CC(N3C[C@@H](NS(=O)(=O)CF)C(F)(F)C3)=NO2)c(-c2c(F)cc(F)cc2F)c1` [Example 58, N-[(3R)-4,4-difluoro-1-{(5S)-5-[5-methyl-3-(2,4,6-trifluorophenyl)pyridin-2-yl]-4,5-dihydro-1,2-oxazol-3-yl}pyrrolidin-3-yl]-1-fluoromethanesulfonamide] is higher in “OX2R agonist activity (3 μM, %)” value: 102% for the first, 103% for the second.

First: Cc1cc(F)c(C2CC(N3C[C@@H](NS(C)(=O)=O)C(F)(F)C3)=NO2)c(-c2ncccc2F)c1 (stereo partly drawn) [Example 176, N-[(3R)-4,4-difluoro-1-{5-[2-fluoro-6-(3-fluoropyridin-2-yl)-4-methylphenyl]-4,5-dihydro-1,2-oxazol-3-yl}pyrrolidin-3-yl]methanesulfonamide]
Second: C[C@]1(F)CN(C2=NOC(c3c(F)cc(F)cc3-c3c(F)cccc3F)C2)C[C@H]1NS(C)(=O)=O (single isomer, unassigned) [Example 164]
The “OX2R agonist activity (3 μM, %)” value of the first is higher: 109% for the first, 97% for the second.

Compared with `O=S(=O)(N[C@H]1CCN(C2=NOC(CF)(c3ncc(F)cc3-c3c(F)cccc3F)C2)C1)C1(F)CC1` (stereo partly drawn) [Example 89, N-[(3S)-1-{5-[3-(2,6-difluorophenyl)-5-fluoropyridin-2-yl]-5-(fluoromethyl)-4,5-dihydro-1,2-oxazol-3-yl}pyrrolidin-3-yl]-1-fluorocyclopropane-1-sulfonamide], `Cc1cnc([C@@H]2CC(N3CC[C@H](NS(=O)(=O)C4(F)CC4)C3)=NO2)c(-c2c(F)cc(F)cc2F)c1` [Example 46, 1-fluoro-N-[(3S)-1-{(5S)-5-[5-methyl-3-(2,4,6-trifluorophenyl)pyridin-2-yl]-4,5-dihydro-1,2-oxazol-3-yl}pyrrolidin-3-yl]cyclopropane-1-sulfonamide] is higher in “OX2R agonist activity (3 μM, %)” value: 93% for the first, 99% for the second.

Compared with `Cc1cnc(C2CC(N(C)[C@H]3C[C@@H](NS(C)(=O)=O)C3)=NO2)c(-c2c(F)cccc2F)c1` (stereo partly drawn) [Example 27, N-{(1s,3s)-3-[{5-[3-(2,6-difluorophenyl)-5-methylpyridin-2-yl]-4,5-dihydro-1,2-oxazol-3-yl}(methyl)amino]cyclobutyl}methanesulfonamide], `CCS(=O)(=O)N[C@@H]1CN(C2=NO[C@H](c3ncc(Br)cc3-c3c(F)cc(F)cc3F)C2)CC1(F)F` [Example 43, N-[(3R)-1-{5-[5-bromo-3-(2,4,6-trifluorophenyl)pyridin-2-yl]-4,5-dihydro-1,2-oxazol-3-yl}-4,4-difluoropyrrolidin-3-yl]ethanesulfonamide] is higher in “OX2R agonist activity (3 μM, %)” value: 77% for the first, 103% for the second.

With `O=S(=O)(CF)N[C@@H]1CN(C2=NOC(c3c(F)ccc(F)c3-c3c(F)cccc3F)C2)CC1(F)F` (stereo partly drawn) [Example 173, N-{(3R)-4,4-difluoro-1-[5-(2′,3,6,6′-tetrafluoro[1,1′-biphenyl]-2-yl)-4,5-dihydro-1,2-oxazol-3-yl]pyrrolidin-3-yl}-1-fluoromethanesulfonamide] the “OX2R agonist activity (3 μM, %)” value was 100%.
